In patent US20250339567A1, “COMPOUNDS WITH IMPROVED PHARMACOKINETICS FOR IMAGING AND THERAPY OF CANCER” (priority 2019, published 2025):
Starred links: 1 amine or outer side, 2 acyl side, 3 side chain; linkers in the order of their positions; H or OH if unused. Non-standard residues stand in square brackets, D forms with d. Residues, ends and D or L forms follow the SMILES beside them. *: point of attachment. DOTAGA = O=C(O)CN1CCN(CC(=O)O)CCN(C(CCC(=O)*)C(=O)O)CCN(CC(=O)O)CC1; Benzoyl(4-SiFtBu2) = CC(C)(C)[Si](F)(c1ccc(C(=O)*)cc1)C(C)(C)C; d(γGlu) = O=C(O)[C@@H](CCC(=O)[*:2])N[*:1]; Sta = CC(C)C[C@H](N)[C@@H](O)CC(=O)O; X1 = O=C(CN1CCC(N[*:1])CC1)[*:2]; dOrn = NCCC[C@@H](N)C(=O)O; dDap = NC[C@@H](N)C(=O)O; CO = O=C([*:1])[*:2]

Legend:
[1] = n-Octanol-PBS distribution coefficient, log D7.4; type: physicochemical; conditions: for log D7.4 (n = 6), ^177Lu-labeled: Table 6, 177Lu-labeled Bombesin-SiFA compounds
Method: Approximately 1 MBq of the labeled tracer was dissolved in 1 mL of a 1:1 mixture (v/v) of phosphate buffered saline (PBS, pH=7.4) and n-octanol in an Eppendorf tube. After vigorous mixing of the suspension for 3 min at room temperature, the vial was centrifuged at 9000 rpm for 5 min (Biofuge 15, Heraus Sepatech, Osterode, Germany) and 200 μL aliquots of both layers were measured in a γ-counter. The experiment was repeated at least four times.

GRPR = target: T1, GRPR (Homo sapiens, UniProt P30550); experiment: Determination of GRPR affinity (IC50), competition with [D-3-[125I]I-Tyr6]MJ9 on PC-3 cells; type: binding; conditions: Table 6, natLu-labeled, [D-3-[125I]I-Tyr6]MJ9 (c = 0.2 nM), 2 h, r.t.
T1 construct: endogenous in cells; host or cells: PC-3 cells
T1 sequence (P30550 whole entry): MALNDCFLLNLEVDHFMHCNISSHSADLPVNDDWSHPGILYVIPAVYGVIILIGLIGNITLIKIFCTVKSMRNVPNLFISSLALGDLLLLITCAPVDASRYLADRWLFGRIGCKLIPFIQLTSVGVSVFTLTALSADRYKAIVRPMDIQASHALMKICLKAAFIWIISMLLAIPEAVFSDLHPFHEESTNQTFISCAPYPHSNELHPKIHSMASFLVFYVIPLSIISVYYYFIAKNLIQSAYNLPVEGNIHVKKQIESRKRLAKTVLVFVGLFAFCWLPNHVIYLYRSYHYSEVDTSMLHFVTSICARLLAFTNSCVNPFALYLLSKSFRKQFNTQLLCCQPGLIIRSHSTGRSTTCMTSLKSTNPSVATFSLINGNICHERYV
Method: The reference ligand for IC50 studies ([D-3-[^125I]I-Tyr^6]MJ9) is prepared according to a previously published procedure. Briefly, 0.2 mg of [D-Tyr^6]MJ9 are dissolved in 20 μL Tracepur water and 280 μL TRIS buffer (25 mm TRIS HCl, 0.4 M NaCl, pH=7.9). After addition of the solution to a vial containing 150 μg Iodo-Gen® (1,3,4,6-Tetrachloro-3α,6α-diphenylglycouril, surface-bound), 5.0 μL (16 MBq) [^125I]Nal(74 TBq/mmol, 3.1 GBq/mL, 40 mM NaOH, Hartmann Analytic, Braunschweig, Germany) are added.
The GRPR-positive PC-3 cells are cultured in Dublecco modified Eagle medium/Nutrition Mixture F-12 with Glutamax-I (1:1) (Invitrigon), supplemented with 10% fetal calf serum and maintained at 37° C. in a humidified 5% CO2 atmosphere.
After removal of the culture medium, the cells are washed once with 500 μL of HBSS (Hank's balanced salt solution, Biochrom, Berlin, Germany, with addition of 1% bovine serum albumin (BSA)) and left in 200 μL HBSS (1% BSA) for 9 min at room temperature for equilibration. Next, 25 μL per well of solutions, containing either HBSS (1% BSA) as control or the respective ligand in increasing concentration (10^−10 M-10^−4 M in HBSS), are added with subsequent addition of 25 μL of [D-3-[^125I]I-Tyr^6]MJ9 (2.0 nM) in HBSS (1% BSA).
All experiments are performed in triplicate for each concentration. After 2 h incubation at room temperature, the experiment is terminated by removal of the medium and consecutive rinsing with 300 μL of HBSS. The media of both steps are combined in one fraction and represent the amount of free radiolabeled reference. Afterwards, the cells are lysed with 300 μL of 1 M NaOH for at least 15 min and united with the 300 μL NaOH of the following washing step. Quantification of bound and free radiolabeled reference is accomplished in a γ-counter.
IC50 determination for each ligand was repeated twice.

log D7.4 ± SD (n = 8) ([1]; 177Lu-labeled ligand, n-octanol/PBS pH 7.4)	Compound	IC50 [nM], ^natLu-labeled (n = 3) (GRPR)	log D7.4 (n = 6), ^177Lu-labeled [1]
−2.51 ± 0.11	CC(C)C[C@H](NC(=O)C[C@H](O)[C@H](CC(C)C)NC(=O)[C@H](Cc1c[nH]cn1)NC(=O)CNC(=O)[C@@H](NC(=O)[C@H](C)NC(=O)[C@](C)(Cc1c[nH]c2ccccc12)NC(=O)[C@H](CCC(N)=O)NC(=O)[C@@H](Cc1ccccc1)NC(=O)CN1CCC(NC(=O)CCC(C(=O)O)N2CCN(CC(=O)O)CCN(CC(=O)O)CCN(CC(=O)O)CC2)CC1)C(C)C)C(N)=O (single isomer, unassigned) [AMTG2]		
	CC(C)C[C@H](NC(=O)C[C@H](O)[C@H](CC(C)C)NC(=O)[C@H](Cc1c[nH]cn1)NC(=O)CNC(=O)[C@@H](NC(=O)[C@H](C)NC(=O)[C@H](Cc1c[nH]c2ccccc12)NC(=O)[C@H](CCC(N)=O)NC(=O)[C@@H](Cc1ccccc1)NC(=O)CN1CCC(NC(=O)[C@@H](CN)NC(=O)[C@@H](CCCN)NC(=O)[C@@H](CC(=O)O)NC(=O)[C@@H](CC(=O)O)NC(=O)[C@@H](CNC(=O)CCC(C(=O)O)N2CCN(CC(=O)O)CCN(CC(=O)O)CCN(CC(=O)O)CC2)NC(=O)[C@@H](CNC(=O)c2ccc([Si](F)(C(C)(C)C)C(C)(C)C)cc2)NC(=O)CC[C@@H](NC(=O)N[C@H](CCC(=O)O)C(=O)O)C(=O)O)CC1)C(C)C)C(N)=O (stereo partly drawn) [GT50] ({dE-CO-d(γGlu)}-[dDap](Benzoyl(4-SiFtBu2))[dDap](DOTAGA)[dD][dD][dOrn][dDap][X1][dF]QWAVGH[Sta]L-NH2)	comparable range	−1.96 ± 0.15
	CC(C)C[C@H](NC(=O)C[C@H](O)[C@H](CC(C)C)NC(=O)[C@H](Cc1c[nH]cn1)NC(=O)CNC(=O)[C@@H](NC(=O)[C@H](C)NC(=O)[C@H](Cc1c[nH]c2ccccc12)NC(=O)[C@H](CCC(N)=O)NC(=O)[C@@H](Cc1ccccc1)NC(=O)CN1CCC(NC(=O)[C@@H](CN)NC(=O)[C@@H](CC(=O)O)NC(=O)[C@@H](CCCN)NC(=O)[C@@H](CNC(=O)CCC(C(=O)O)N2CCN(CC(=O)O)CCN(CC(=O)O)CCN(CC(=O)O)CC2)NC(=O)[C@@H](CNC(=O)c2ccc([Si](F)(C(C)(C)C)C(C)(C)C)cc2)NC(=O)CC[C@@H](NC(=O)N[C@H](CCC(=O)O)C(=O)O)C(=O)O)CC1)C(C)C)C(N)=O (stereo partly drawn) [GT51] ({dE-CO-d(γGlu)}-[dDap](Benzoyl(4-SiFtBu2))[dDap](DOTAGA)[dOrn][dD][dDap][X1][dF]QWAVGH[Sta]L-NH2)	slightly increased	−1.96 ± 0.15
	CC(C)C[C@H](NC(=O)C[C@H](O)[C@H](CC(C)C)NC(=O)[C@H](Cc1c[nH]cn1)NC(=O)CNC(=O)[C@@H](NC(=O)[C@H](C)NC(=O)[C@H](Cc1c[nH]c2ccccc12)NC(=O)[C@H](CCC(N)=O)NC(=O)[C@@H](Cc1ccccc1)NC(=O)CN1CCC(NC(=O)CN2CCC(NC(=O)CN3CCC(NC(=O)[C@@H](CC(=O)O)NC(=O)[C@@H](CNC(=O)CCC(C(=O)O)N4CCN(CC(=O)O)CCN(CC(=O)O)CCN(CC(=O)O)CC4)NC(=O)[C@@H](CNC(=O)c4ccc([Si](F)(C(C)(C)C)C(C)(C)C)cc4)NC(=O)CC[C@@H](NC(=O)N[C@H](CCC(=O)O)C(=O)O)C(=O)O)CC3)CC2)CC1)C(C)C)C(N)=O (stereo partly drawn) [GT52] ({dE-CO-d(γGlu)}-[dDap](Benzoyl(4-SiFtBu2))[dDap](DOTAGA)[dD][X1][X1][X1][dF]QWAVGH[Sta]L-NH2)	comparable range	−2.05 ± 0.08
	CC(C)C[C@H](NC(=O)C[C@H](O)[C@H](CC(C)C)NC(=O)[C@H](Cc1c[nH]cn1)NC(=O)CNC(=O)[C@@H](NC(=O)[C@H](C)NC(=O)[C@H](Cc1c[nH]c2ccccc12)NC(=O)[C@H](CCC(N)=O)NC(=O)[C@@H](Cc1ccccc1)NC(=O)CN1CCC(NC(=O)CN2CCC(NC(=O)[C@@H](CC(=O)O)NC(=O)[C@@H](CNC(=O)CCC(C(=O)O)N3CCN(CC(=O)O)CCN(CC(=O)O)CCN(CC(=O)O)CC3)NC(=O)[C@@H](CNC(=O)c3ccc([Si](F)(C(C)(C)C)C(C)(C)C)cc3)NC(=O)CC[C@@H](NC(=O)N[C@H](CCC(=O)O)C(=O)O)C(=O)O)CC2)CC1)C(C)C)C(N)=O (stereo partly drawn) [GT53] ({dE-CO-d(γGlu)}-[dDap](Benzoyl(4-SiFtBu2))[dDap](DOTAGA)[dD][X1][X1][dF]QWAVGH[Sta]L-NH2)	slightly increased	−1.81 ± 0.15
